According to patent US11066421B1, “Synthetic cinchona alkaloids against cancer” (Ares Pharmaceuticals, LLC, priority 2021, dated 2021):
“Also recorded” adds a separate entry of the source.

Assays:
BT-20 = experiment: Confocal laser scanning microscopy apoptosis, BT-20; type: cell-based, human; settings: 100 nM, 48 hours
Method: (§1) Confocal Laser Scanning Microscopy. Cells were treated with cinchona alkaloids or PBS in culture medium for 48 hours. After 48 hr of culture, cells were co-stained with a rabbit polyclonal antitubulin antibody (Green Fluorescence) and the DNA-specific dye Toto-3 (Blue Fluorescence) and examined by laser scanning confocal microscopy using a Bio-Rad MRC-1024 Laser Scanning Confocal Microscope equipped with a Kr/Ar laser (Bio-Rad, Hercules, Calif., USA) mounted on a Nikon Eclipse E800 upright microscope with high numerical aperture objectives (Nikon, Melville, N.Y., USA), as described (F. M. Uckun, et al., 2010, Proc. Natl. Acad. Sci. USA, 107: 2902-7; F. M. Uckun., et al., 2010, British Journal of Haematology, 149: 508-17; F. M. Uckun, et al., 2013, Blood. 121:4348-54; F. M. Uckun et al., 2010, Proc. Natl Acad. Sci. USA 107:16852-57; F. M. Uckun et al., 2012, Proc. Natl Acad. Sci. USA 109:18072-77). Cell lines. BT-20 (ATCC HTB-19), a triple negative breast cancer cell line, PC-3 (ATCC CRL-1435) a CRPC cell line (small cell endocrine carcinoma) derived from a Stage IV prostate cancer patient with bone metastases were obtained from American Type Culture Collection (ATCC) (Manassas, Va.). […] Cells were washed in PBS and counterstained with the DNA-specific dye TOTO-3 (blue fluorescence) (Molecular Probes Inc., Eugene, Oreg.) for 10 min at a dilution of 1:1000. […]

PC-3 = experiment: Confocal laser scanning microscopy apoptosis, PC-3; type: cell-based, human; settings: 100 nM, 48 hours
Method: as §1

[1] = test system: PC3 human prostate cancer cells; experiment: CB.17 SCID mouse xenograft model of human prostate cancer; type: in vivo; settings: 2 mg/kg i.p. twice daily, 5 days on 2 days off
Method: Cell Lines. Human prostate cancer cell line PC3 (ATCC CRL-1435) was obtained from American Type Culture Collection (Rockville, Md.) and maintained as a continuous cell line in DMEM supplemented with 10% fetal calf serum (FCS), 4 mm glutamine, 100 units/ml penicillin G, and […] streptomycin sulfate. All of the tissue culture reagents were obtained from Life Technologies, Inc. Inc. (Gaithersburg, Md.). Mice. Female CB.17 SCID mice were obtained from Taconic (Germantown, N.Y.) and housed in a specific-pathogen-free room located in a secure indoor facility with controlled temperature, humidity, and noise levels. Mice were housed in micro-isolator cages and fed with autoclaved rodent chow. Water was also autoclaved and supplemented with trimethoprim/sulfamethoxazol 3 days a week. The animal protocol used in this study was approved by the Drug Discovery Enterprises Animal Care and Use Committee (IACUC), and all of the animal care procedures conformed to the Guide for the Care and Use of Laboratory Animals (National Research Council, National Academy Press, Washington D.C. 1996). […] The size of subcutaneous tumors were measured on day 16 and day 18 to evaluate the ability of AP-8 to inhibit tumor growth in this SCID mouse xenograft model of prostate cancer. Tumor volumes were calculated using the formula for the volume of a prolate spheroid, V=4/3×3.14×length/2×width/2×depth/2.

Molecule	signs of apoptosis by confocal imaging (BT-20)	signs of apoptosis by confocal imaging (PC-3)	tumor progression [1]	average tumor volume ([1]; day 18, from day 7) [mm^3]
2,4,6-Tri (9-O-dihydrocinchoninyl)pyrimidine [AP-5]	virtually all of the BT-20 or PC-3 cells treated with AP-5 showed signs of advanced apoptosis; also recorded: virtually all of the BT-20 cells treated with AP-5 showed signs of advanced apoptosis	virtually all of the BT-20 or PC-3 cells treated with AP-5 showed signs of advanced apoptosis; also recorded: virtually all of the PC-3 cells treated with AP-5 showed signs of advanced apoptosis	–	–
CCC1CN2CCC1CC2C(Oc1cc(OC(c2ccnc3ccc(OC)cc23)C2CC3CCN2CC3CC)nc(OC(c2ccnc3ccc(OC)cc23)C2CC3CCN2CC3CC)n1)c1ccnc2ccc(OC)cc12 (stereo not shown) [AP-8, 2,4,6-Tri (9-O-dihydroquinidinyl)pyrimidine]	–	–	significantly slowed down the tumor progression	45.1±7.8
